Measured values published in US8962621B2 (Shanghai Institute of Pharmaceutical Industry, priority 2010, dated 2015).

Legend:
NA Transporter (hNAT) = NA Transporter (hNAT) (Homo sapiens, UniProt P23975); test: Inhibition of [3H]-NA reuptake in HEK 293 cells stably expressing hNAT; conditions: HEK293, read-out: NA Reuptake Inhibition
[1] = Acute toxicity experiment (single oral gavage); conditions: mouse, in vivo, po
NA reuptake = test: Yohimbine toxicity enhancement in mice; format: in vivo; conditions: for Mortality (%) 1 h / Mortality (%) 2 h / Mortality (%) 4 h / Mortality (%) 5 h / Mortality (%) 24 h: Yohimbine 25 mg/kg s.c. 1 h later, n = 10
From the text: Tests of the 5-hydroxytryptophan (DL-5-HTP) potentiation in mice, Yohimbine toxicity enhancement in mice and oxidation tremors can verify a compound's inhibition effect on 5-HT, NA and DA reuptake. Compound VI-2 is selected for the tests.
a) Principles • Yohimbine can prevent the binding of NA to the receptor by occupying α2 receptor. If an antidepressant which inhibits the deactivation of NA or inhibits NA reuptake is taken together with Yohimbine, an individual may be poisoned even to death due to the raised NA concentration.
b) Test Method • This test consists of 5 experimental groups: Yohimbine control group, VI-2-1 (30 mg/kg) group, VI-2-2 (18 mg/kg) group, VI2-3 (11 mg/kg) group and VI-2-4 (6.5 mg/kg) group. The highest dose used in the DL-5-HTP potentiation test in mice is designated as the reference for the highest dose group, down from which 4 dosage groups are set with a dose ratio of 0.6 across groups. For each VI-2 group, the compound at the corresponding dosage is administrated orally, or as in the case of the Yohimbine control group, N.S is given to the animals. One hour after the treatment, Yohimbine at 25 mg/kg (life-threatening dose for the animal) is administrated by subcutaneous injection to the mice in all groups. The mortality in each group is observed and recorded at 1, 2, 4, 5 and 24 h after the administration of Yohimbine. The ED50 value is calculated accordingly.

DA Transporter (hDAT) = DA Transporter (hDAT) (Homo sapiens, UniProt Q01959); test: Inhibition of [3H]-DA reuptake in HEK 293 cells stably expressing hDAT; conditions: HEK293, read-out: DA Reuptake Inhibition
Sequence of DA Transporter (hDAT) (Q01959 whole entry): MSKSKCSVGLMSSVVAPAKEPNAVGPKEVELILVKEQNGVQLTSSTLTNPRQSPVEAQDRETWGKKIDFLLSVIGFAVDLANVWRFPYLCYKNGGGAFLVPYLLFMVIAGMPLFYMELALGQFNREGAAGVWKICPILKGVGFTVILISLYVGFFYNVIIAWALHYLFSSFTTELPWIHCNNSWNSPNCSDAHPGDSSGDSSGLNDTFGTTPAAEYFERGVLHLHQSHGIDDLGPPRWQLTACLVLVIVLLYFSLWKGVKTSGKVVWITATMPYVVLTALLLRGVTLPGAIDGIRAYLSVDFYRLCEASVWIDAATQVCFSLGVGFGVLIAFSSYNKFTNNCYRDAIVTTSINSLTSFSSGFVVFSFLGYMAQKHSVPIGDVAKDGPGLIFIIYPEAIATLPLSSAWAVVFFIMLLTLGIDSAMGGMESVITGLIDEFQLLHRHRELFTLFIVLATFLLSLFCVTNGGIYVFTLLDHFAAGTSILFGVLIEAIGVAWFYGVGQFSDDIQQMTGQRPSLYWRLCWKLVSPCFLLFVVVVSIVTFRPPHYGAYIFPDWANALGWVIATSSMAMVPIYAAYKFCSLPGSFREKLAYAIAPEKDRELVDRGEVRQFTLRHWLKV

Sequence of NA Transporter (hNAT) (P23975 whole entry): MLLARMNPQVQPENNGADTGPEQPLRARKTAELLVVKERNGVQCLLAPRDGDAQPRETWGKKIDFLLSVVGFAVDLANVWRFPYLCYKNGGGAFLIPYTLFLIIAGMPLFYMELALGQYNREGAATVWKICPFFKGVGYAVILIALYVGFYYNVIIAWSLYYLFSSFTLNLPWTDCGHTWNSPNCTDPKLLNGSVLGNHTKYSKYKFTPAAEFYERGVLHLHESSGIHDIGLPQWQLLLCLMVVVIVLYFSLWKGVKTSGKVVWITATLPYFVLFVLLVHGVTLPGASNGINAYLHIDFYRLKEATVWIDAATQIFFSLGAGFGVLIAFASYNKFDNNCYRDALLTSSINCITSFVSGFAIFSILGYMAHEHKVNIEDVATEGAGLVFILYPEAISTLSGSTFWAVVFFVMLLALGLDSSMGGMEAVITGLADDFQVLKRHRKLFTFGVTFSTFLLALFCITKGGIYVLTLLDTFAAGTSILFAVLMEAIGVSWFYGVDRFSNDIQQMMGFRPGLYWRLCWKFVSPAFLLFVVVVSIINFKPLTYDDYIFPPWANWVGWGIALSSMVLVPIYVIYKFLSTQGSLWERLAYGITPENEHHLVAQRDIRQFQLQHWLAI

For `CN(C)CCC(c1ccc(Cl)c(Cl)c1)N1CCCC1` (stereo not shown) [VI-2, N,N-dimethyl-3-(3,4-dichlorophenyl)-3-(pyrrolidin-1-yl)-propylamine], the inhibition at 10 µM (NA Transporter (hNAT)) was 100%, the LD50 [1] was 950 mg/kg and the “Mortality (%) 1 h” value (NA reuptake; 6.5 mg/kg oral) was 0%. For the same compound, the “Mortality (%) 2 h” value (NA reuptake; 6.5 mg/kg oral) was 0%, the “Mortality (%) 4 h” value (NA reuptake; 6.5 mg/kg oral) was 0% and the “Mortality (%) 5 h” value (NA reuptake; 6.5 mg/kg oral) was 0%. For the same compound, the “Mortality (%) 24 h” value (NA reuptake; 6.5 mg/kg oral) was 0%, the “Mortality (%) 1 h” value (NA reuptake; 11 mg/kg oral) was 0% and the “Mortality (%) 2 h” value (NA reuptake; 11 mg/kg oral) was 1%. The “Mortality (%) 4 h” value (NA reuptake; 11 mg/kg oral) was 0%, the “Mortality (%) 5 h” value (NA reuptake; 11 mg/kg oral) was 0% and the “Mortality (%) 24 h” value (NA reuptake; 11 mg/kg oral) was 0%. For the same compound, the “Mortality (%) 1 h” value (NA reuptake; 18 mg/kg oral) was 1%, the “Mortality (%) 2 h” value (NA reuptake; 18 mg/kg oral) was 2% and the “Mortality (%) 4 h” value (NA reuptake; 18 mg/kg oral) was 0%. For the same compound, the “Mortality (%) 5 h” value (NA reuptake; 18 mg/kg oral) was 0%, the “Mortality (%) 24 h” value (NA reuptake; 18 mg/kg oral) was 0% and the “Mortality (%) 1 h” value (NA reuptake; 30 mg/kg oral) was 2%. For the same compound, the “Mortality (%) 2 h” value (NA reuptake; 30 mg/kg oral) was 0%, the “Mortality (%) 4 h” value (NA reuptake; 30 mg/kg oral) was 0% and the “Mortality (%) 5 h” value (NA reuptake; 30 mg/kg oral) was 0%. For the same compound, the “Mortality (%) 24 h” value (NA reuptake; 30 mg/kg oral) was 0%, the “enhancement of Yohimbine toxicity (in words)” value (NA reuptake; 30, 18 and 11 mg/kg oral, significant dose-effect relationship) was “enhances the toxicity of Yohimbine” and the ED50 (NA reuptake; Mus musculus, oral, Bliss method, DAS statistical software) was 32.8 mg/kg. For the same compound, the inhibition at 10 µM (DA Transporter (hDAT)) was 103%.
